Patent US10131652B2, “Pyrimidinyloxy benzene derivatives as herbicides” (E. I. DU PONT DE NEMOURS AND COMPANY, priority 2014, dated 2018)

Legend:
Assay type in all cases: in vivo
[1] = system: barnyardgrass (Echinochloa crus-galli); test: Test B pre-/postemergence plant response
In short: (§1)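 Evaluation is visual, about 10 days after application, rating injury from 0 (none) to 100 (complete control) relative to untreated controls. Application was a preemergence soil spray on seeded pots or a postemergence spray on one- to two-leaf plants.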

[2] = system: giant foxtail (Setaria faberii); test: Test B pre-/postemergence plant response
In short: as §1

[3] = system: Italian ryegrass (Lolium multiflorum); test: Test B pre-/postemergence plant response
In short: as §1

kochia (Kochia scoparia) [4] = test: Test B pre-/postemergence plant response
In short: as §1

[5] = system: pigweed (Amaranthus retroflexus); test: Test B pre-/postemergence plant response
In short: as §1

[6] = system: ragweed (common ragweed, Ambrosia elatior); test: Test B pre-/postemergence plant response
In short: as §1

corn (Zea mays) = test: Test B pre-/postemergence plant response
In short: as §1

[7] = system: wheat (Triticum aestivum); test: Test B pre-/postemergence plant response
In short: as §1

[8] = system: chickweed (common chickweed, Stellaria media); test: Test D postemergence plant response; details: for Chickweed plant response rating: scale 0 to 100 (0 no effect, 100 complete control); for Plant response rating, Chickweed: scale 0 to 100, 0 no effect, 100 complete control
In short: (§2)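 The formulated test chemicals were applied over the foliage of young potted plants (2 to 18 cm tall), which were then held under greenhouse conditions. Between days 13 and 15 each species was rated by eye versus controls, from 0 for no effect up to 100 for complete control.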

kochia (Kochia scoparia) [9] = test: Test D postemergence plant response; details: for Kochia plant response rating: 31 g ai/ha, scale 0 to 100 (0 no effect, 100 complete control); for Plant response rating, Kochia: scale 0 to 100, 0 no effect, 100 complete control
In short: as §2

wild oat (Avena fatua) = test: Test D postemergence plant response; details: for Oat, Wild plant response rating: 31 g ai/ha, scale 0 to 100 (0 no effect, 100 complete control); for Plant response rating, Oat, Wild: scale 0 to 100, 0 no effect, 100 complete control
In short: as §2

[10] = system: barnyardgrass (Echinochloa crus-galli); test: Test C flooded paddy test plant response; details: Flood, 250 g ai/ha; scale of 0 to 100 where 0 is no effect and 100 is complete control; 13 to 15 days
In short: (§3)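 Plants grown to the 2-leaf stage; pots flooded to 3 cm above soil, test compounds applied directly to paddy water, depth maintained throughout. Greenhouse for 13 to 15 days, then visual rating versus controls on a 0–100 scale (0 no effect, 100 complete control).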

[11] = system: ducksalad (Heteranthera limosa); test: Test C flooded paddy test plant response; details: Flood, 250 g ai/ha; scale of 0 to 100 where 0 is no effect and 100 is complete control; 13 to 15 days
In short: as §3

[12] = system: small-flower umbrella sedge (Cyperus difformis); test: Test C flooded paddy test plant response; details: Flood, 250 g ai/ha; scale of 0 to 100 where 0 is no effect and 100 is complete control; 13 to 15 days
In short: as §3

rice (Oryza sativa) = test: Test C flooded paddy test plant response; details: Flood, 250 g ai/ha; scale of 0 to 100 where 0 is no effect and 100 is complete control; 13 to 15 days
In short: as §3

[13] = system: blackgrass (Alopecurus myosuroides); test: Test B postemergence plant response
In short: (§4)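 Values are visual control ratings (0 to 100) recorded approximately 10 days after postemergence application to greenhouse-grown plants of 2 to 10 cm, one- to two-leaf stage, each judged against untreated controls.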

[14] = system: galium (catchweed bedstraw, Galium aparine); test: Test B postemergence plant response
In short: as §4

[15] = 31 g ai/ha, Preemergence, 0 to 100 scale where 0 is no effect and 100 is complete control
[16] = 125 g ai/ha, postemergence, 0 to 100 scale, 0 no effect, 100 complete control
[17] = Postemergence, 31 g ai/ha, 0 to 100 scale (0 no effect, 100 complete control)
[18] = Preemergence, 125 g ai/ha, 0 to 100 scale (0 no effect, 100 complete control)
[19] = Postemergence, 500 g ai/ha, 0 to 100 scale (0 no effect, 100 complete control)
[20] = Preemergence, 500 g ai/ha, 0 to 100 scale where 0 is no effect and 100 is complete control

CC(F)(F)c1cc(-c2ccccc2Oc2ncc(Br)cn2)no1 [Compound 149]
0: Plant response rating, Ryegrass, Italian [3, 15] | Plant response rating, Ryegrass, Italian [3, 17] | Plant response rating, Ragweed [6, 15] | Ragweed plant response rating [6, 18] | Plant response rating, Wheat [7, 17] | Oat, Wild plant response rating (wild oat (Avena fatua)) | Plant response rating, Oat, Wild (wild oat (Avena fatua); 62 g ai/ha) | Barnyardgrass plant response rating [10] | Rice plant response rating (rice (Oryza sativa))
60: Plant response rating, Foxtail, Giant [2, 16] | Plant response rating, Chickweed ([8]; 125 g ai/ha) | Plant response rating, Blackgrass [13, 16]
70: Barnyardgrass plant response rating [1, 18] | Plant response rating, Foxtail, Giant [2, 15]
10: Plant response rating, Barnyardgrass [1, 15] | Plant response rating, Barnyardgrass [1, 17] | Plant response rating, Foxtail, Giant [2, 17] | Ryegrass, Italian plant response rating [3, 18] | Plant response rating, Ragweed [6, 17] | Plant response rating, Corn (corn (Zea mays); [17]) | Plant response rating, Wheat [7, 16] | Plant response rating, Blackgrass [13, 17]
80: Kochia plant response rating (kochia (Kochia scoparia) [4]; [18]) | Plant response rating, Pigweed [5, 15] | Ducksalad plant response rating [11]
30: Chickweed plant response rating ([8]; 31 g ai/ha) | Plant response rating, Chickweed ([8]; 62 g ai/ha)
100: Foxtail, Giant plant response rating [2, 18] | Plant response rating, Kochia (kochia (Kochia scoparia) [4]; [16]) | Plant response rating, Pigweed [5, 16] | Pigweed plant response rating [5, 18] | Plant response rating, Kochia (kochia (Kochia scoparia) [9]; 62 g ai/ha) | Plant response rating, Kochia (kochia (Kochia scoparia) [9]; 125 g ai/ha)
90: Plant response rating, Kochia (kochia (Kochia scoparia) [4]; [17]) | Plant response rating, Pigweed [5, 17] | Kochia plant response rating (kochia (Kochia scoparia) [9]) | Plant response rating, Galium [14, 16] | Plant response rating, Galium [14, 17]
5: Chickweed plant response rating ([8]; 16 g ai/ha) | Plant response rating, Oat, Wild (wild oat (Avena fatua); 125 g ai/ha)
40: Plant response rating, Barnyardgrass [1, 16]
20: Plant response rating, Ryegrass, Italian [3, 16] | Plant response rating, Kochia (kochia (Kochia scoparia) [4]; [15]) | Plant response rating, Ragweed [6, 16] | Plant response rating, Corn (corn (Zea mays); [16])
65: Sedge, Umbrella plant response rating [12]

Cc1cc(-c2ccccc2Oc2ncc(Cl)cn2)no1 [Compound 153]
20: Plant response rating, Foxtail, Giant [2, 16] | Plant response rating, Ryegrass, Italian [3, 20] | Kochia plant response rating (kochia (Kochia scoparia) [4]; [18]) | Plant response rating, Ragweed [6, 16] | Chickweed plant response rating ([8]; 16 g ai/ha) | Chickweed plant response rating ([8]; 31 g ai/ha) | Plant response rating, Chickweed ([8]; 62 g ai/ha)
60: Plant response rating, Ryegrass, Italian [3, 19] | Plant response rating, Kochia (kochia (Kochia scoparia) [9]; 125 g ai/ha)
40: Plant response rating, Ragweed [6, 20] | Plant response rating, Corn (corn (Zea mays); [19]) | Plant response rating, Kochia (kochia (Kochia scoparia) [9]; 62 g ai/ha) | Plant response rating, Blackgrass [13, 16]
25: Plant response rating, Chickweed ([8]; 125 g ai/ha)
50: Plant response rating, Wheat [7, 19] | Kochia plant response rating (kochia (Kochia scoparia) [9])
90: Plant response rating, Foxtail, Giant [2, 19] | Plant response rating, Kochia (kochia (Kochia scoparia) [4]; [16]) | Plant response rating, Kochia (kochia (Kochia scoparia) [4]; [19]) | Plant response rating, Blackgrass [13, 19] | Plant response rating, Galium [14, 16]
70: Plant response rating, Barnyardgrass [1, 19]
0: Plant response rating, Barnyardgrass [1, 16] | Barnyardgrass plant response rating [1, 18] | Ryegrass, Italian plant response rating [3, 18] | Ragweed plant response rating [6, 18] | Oat, Wild plant response rating (wild oat (Avena fatua)) | Plant response rating, Oat, Wild (wild oat (Avena fatua); 62 g ai/ha) | Plant response rating, Oat, Wild (wild oat (Avena fatua); 125 g ai/ha) | Barnyardgrass plant response rating [10] | Ducksalad plant response rating [11] | Sedge, Umbrella plant response rating [12] | Rice plant response rating (rice (Oryza sativa))
100: Plant response rating, Barnyardgrass [1, 20] | Plant response rating, Foxtail, Giant [2, 20] | Plant response rating, Kochia (kochia (Kochia scoparia) [4]; [20]) | Plant response rating, Pigweed [5, 16] | Plant response rating, Pigweed [5, 19] | Pigweed plant response rating [5, 18] | Plant response rating, Pigweed [5, 20] | Plant response rating, Ragweed [6, 19] | Plant response rating, Galium [14, 19]
30: Foxtail, Giant plant response rating [2, 18] | Plant response rating, Ryegrass, Italian [3, 16] | Plant response rating, Corn (corn (Zea mays); [16]) | Plant response rating, Wheat [7, 16]

FC(F)(F)c1cc(-c2c(I)cccc2Oc2ncc(Cl)cn2)no1 [Compound 156]
80: Plant response rating, Foxtail, Giant [2, 20] | Pigweed plant response rating [5, 18]
30: Plant response rating, Ryegrass, Italian [3, 16] | Plant response rating, Wheat [7, 19] | Kochia plant response rating (kochia (Kochia scoparia) [9])
90: Plant response rating, Foxtail, Giant [2, 19] | Plant response rating, Kochia (kochia (Kochia scoparia) [4]; [16]) | Plant response rating, Kochia (kochia (Kochia scoparia) [4]; [19]) | Plant response rating, Pigweed [5, 16] | Plant response rating, Galium [14, 16]
0: Plant response rating, Barnyardgrass [1, 16] | Barnyardgrass plant response rating [1, 18] | Ryegrass, Italian plant response rating [3, 18] | Plant response rating, Ryegrass, Italian [3, 20] | Ragweed plant response rating [6, 18] | Plant response rating, Ragweed [6, 20] | Plant response rating (scale 0 to 100), Kochia (kochia (Kochia scoparia) [9]; 8 g ai/ha) | Plant response rating (scale 0 to 100), Oat, Wild (wild oat (Avena fatua); 8 g ai/ha) | Oat, Wild plant response rating (wild oat (Avena fatua)) | Plant response rating, Oat, Wild (wild oat (Avena fatua); 62 g ai/ha) | Barnyardgrass plant response rating [10] | Ducksalad plant response rating [11] | Sedge, Umbrella plant response rating [12] | Rice plant response rating (rice (Oryza sativa))
100: Plant response rating, Pigweed [5, 19] | Plant response rating, Pigweed [5, 20] | Plant response rating, Galium [14, 19]
45: Chickweed plant response rating ([8]; 31 g ai/ha) | Plant response rating, Kochia (kochia (Kochia scoparia) [9]; 62 g ai/ha)
70: Plant response rating, Ryegrass, Italian [3, 19] | Plant response rating, Chickweed ([8]; 62 g ai/ha)
20: Plant response rating, Barnyardgrass [1, 19] | Plant response rating, Barnyardgrass [1, 20] | Plant response rating, Foxtail, Giant [2, 16] | Foxtail, Giant plant response rating [2, 18] | Kochia plant response rating (kochia (Kochia scoparia) [4]; [18]) | Plant response rating, Ragweed [6, 16] | Plant response rating, Corn (corn (Zea mays); [16]) | Plant response rating, Wheat [7, 16] | Plant response rating, Blackgrass [13, 16]
5: Plant response rating (scale 0 to 100), Chickweed ([8]; 8 g ai/ha) | Chickweed plant response rating ([8]; 16 g ai/ha)
40: Plant response rating, Kochia (kochia (Kochia scoparia) [4]; [20]) | Plant response rating, Ragweed [6, 19] | Plant response rating, Corn (corn (Zea mays); [19]) | Plant response rating, Blackgrass [13, 19]

N#Cc1cccc(Oc2ncc(Cl)cn2)c1-c1cc(C(F)(F)F)on1 [Compound 157]
40: Plant response rating, Corn (corn (Zea mays); [19]) | Ducksalad plant response rating [11] | Sedge, Umbrella plant response rating [12]
75: Chickweed plant response rating ([8]; 31 g ai/ha)
90: Plant response rating, Ryegrass, Italian [3, 16] | Plant response rating, Ryegrass, Italian [3, 20] | Plant response rating, Kochia (kochia (Kochia scoparia) [4]; [16]) | Kochia plant response rating (kochia (Kochia scoparia) [9]) | Plant response rating, Blackgrass [13, 19]
20: Plant response rating, Barnyardgrass [1, 16] | Barnyardgrass plant response rating [1, 18] | Ryegrass, Italian plant response rating [3, 18] | Ragweed plant response rating [6, 18] | Plant response rating (scale 0 to 100), Kochia (kochia (Kochia scoparia) [9]; 8 g ai/ha)
70: Plant response rating, Foxtail, Giant [2, 16] | Plant response rating, Ragweed [6, 20] | Plant response rating, Wheat [7, 19] | Plant response rating, Blackgrass [13, 16]
60: Plant response rating, Barnyardgrass [1, 19]
80: Plant response rating, Barnyardgrass [1, 20] | Plant response rating, Foxtail, Giant [2, 19] | Foxtail, Giant plant response rating [2, 18]
10: Plant response rating, Ragweed [6, 16] | Plant response rating (scale 0 to 100), Chickweed ([8]; 8 g ai/ha) | Oat, Wild plant response rating (wild oat (Avena fatua))
0: Plant response rating, Corn (corn (Zea mays); [16]) | Plant response rating (scale 0 to 100), Kochia (kochia (Kochia scoparia) [9]; 4 g ai/ha) | Plant response rating (scale 0 to 100), Oat, Wild (wild oat (Avena fatua); 4 g ai/ha) | Plant response rating (scale 0 to 100), Oat, Wild (wild oat (Avena fatua); 8 g ai/ha) | Barnyardgrass plant response rating [10] | Rice plant response rating (rice (Oryza sativa))
50: Plant response rating, Ragweed [6, 19] | Plant response rating, Wheat [7, 16] | Chickweed plant response rating ([8]; 16 g ai/ha)
100: Plant response rating, Foxtail, Giant [2, 20] | Plant response rating, Ryegrass, Italian [3, 19] | Plant response rating, Kochia (kochia (Kochia scoparia) [4]; [19]) | Kochia plant response rating (kochia (Kochia scoparia) [4]; [18]) | Plant response rating, Kochia (kochia (Kochia scoparia) [4]; [20]) | Plant response rating, Pigweed [5, 16] | Plant response rating, Pigweed [5, 19] | Pigweed plant response rating [5, 18] | Plant response rating, Pigweed [5, 20] | Plant response rating, Galium [14, 16] | Plant response rating, Galium [14, 19]
5: Plant response rating (scale 0 to 100), Chickweed ([8]; 4 g ai/ha)
